Results taken from patent US10034886B2, “GLP-1 receptor modulators” (Celgene International II SÀRL, priority 2014, dated 2018).

target: T1, GLP-1R (Homo sapiens, UniProt P43220); test: EC20 GLP-1(9-36) PAM cAMP assay: dose response of compound in the presence of fixed concentration of GLP-1(9-36); format: cell-based; settings: GLP-1R CRE-bla CHO-K1 cells, compound dose response with fixed concentration of GLP-1(9-36), read-out: EC20 GLP-1(9-36) PAM EC50
T1 construct: host or cells: GLP-1R CRE-bla CHO-K1 cells
Procedure, shortened: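 GLP-1R CRE-bla CHO-K1 cells treated 30 min at 37 °C with 12-point compound dose response plus fixed EC20 GLP-1(9-36), with IBMX, in HBSS/HEPES/0.1% BSA pH 7.4. Total cAMP measured by luminescent detection against standard curve; EC50 and Emax from non-linear regression.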

T1 sequence (P43220 24-463): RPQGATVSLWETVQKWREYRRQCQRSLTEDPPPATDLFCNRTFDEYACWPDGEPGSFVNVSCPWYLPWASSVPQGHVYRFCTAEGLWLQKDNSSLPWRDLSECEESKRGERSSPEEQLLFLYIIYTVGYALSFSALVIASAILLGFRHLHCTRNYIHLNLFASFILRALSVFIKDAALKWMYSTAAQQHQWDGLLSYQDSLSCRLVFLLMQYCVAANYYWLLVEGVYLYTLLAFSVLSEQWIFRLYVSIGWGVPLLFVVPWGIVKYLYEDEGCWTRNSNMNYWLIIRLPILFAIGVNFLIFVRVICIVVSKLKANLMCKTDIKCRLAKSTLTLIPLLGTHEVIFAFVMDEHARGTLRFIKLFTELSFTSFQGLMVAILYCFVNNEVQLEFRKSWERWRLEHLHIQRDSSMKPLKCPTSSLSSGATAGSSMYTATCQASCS
T1 sequence (P01275 100-127 partner limits assumed): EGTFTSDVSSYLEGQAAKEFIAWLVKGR

| EC50 [µM] | Compound |
| --- | --- |
| 2.5 to 5 | CC(C)(C)COc1ccc(-c2cnc(-c3ccc(C[C@H](NC(=O)c4ccc(C(C)(C)C)s4)C(=O)O)cc3)nc2)cc1 [Compound 1350] |
| 0.8 to 2.5 | CCC(C)(C)c1ccc(C(=O)N[C@@H](Cc2ccc(-c3ncc(-c4ccc([C@H]5CC[C@H](CC)CC5)cc4)cn3)cc2)C(=O)O)cc1 [Compound 1375] |

same assay, conditions: dose response of compound in presence of fixed concentration of GLP-1(9-36), GLP-1R CRE-bla CHO-K1 cells, read-out: EC20 GLP-1(9-36) PAM EC50

| EC50 [µM] | Compound |
| --- | --- |
| 2.5 to 5 | CC(C)COc1ccc(-c2cnc(-c3ccc(C[C@H](NC(=O)c4ccc(C(C)(C)C)cc4)C(=O)NCCC(=O)O)cc3)nc2)cc1 [Compound 685] |
| 0.8 to 2.5 | CCCCCCCOc1ccc(-c2cnc(-c3ccc(C[C@H](NC(=O)c4ccc(C(C)(C)C)cc4)C(=O)NC(CCCC)C(=O)O)cc3)nc2)cc1 (stereo partly shown) [Compound 547] |
| 5 to 10 | CCCCCCCOc1ccc(-c2cnc(-c3ccc(C[C@H](NC(=O)c4ccc(C(C)(C)C)s4)C(=O)NC[C@H]4CCNC4)cc3)nc2)cc1 [Compound 438] |
| < 0.8 | CCCCCCCOc1ccc(-c2cnc(-c3ccc(C[C@H](NC(=O)c4ccc(C(C)(C)C)cc4)C(=O)NC(CC(=O)O)C4CCOCC4)cc3)nc2)cc1 (stereo partly shown) [Compound 551] |
| 0.8 to 2.5 | CCCCCCCOc1ccc(-c2cnc(-c3ccc(C[C@H](NC(=O)c4ncc(C(C)C)s4)C(=O)O)cc3)nc2)cc1 [Compound 148] |
